Measured values published in a melting point compilation (Tetko et al.; mined from patent text by program, amines drawn as free bases though some values may be those of a salt).

Structure (SMILES)	melting point [°C]
CC#CC(C)n1nnc2cc3c(=O)n(C(C)Cn4ncnn4)nnc3cc2c1=O (stereo not given)	72 to 74
COCCN1CCSc2ccc(Nc3ncc(Cl)c(N[C@@H]4CCCC[C@H]4NS(C)(=O)=O)n3)cc2C1	140 to 143
O=c1[nH]c2ccccc2n1CCCN1CCC(OC(c2ccccc2)c2ccccc2)CC1	149
CCOC(=O)c1cc(S)n2nc(C)nc2n1	234 to 236
COC(=O)CCC#Cc1cc(Cl)ccc1NS(=O)(=O)c1ccc(-c2ccccc2)cc1	93
COC(c1cc2c3c(c1)c(C)cc(=O)n3CC2)(C(F)(F)F)C(F)(F)F	242 to 243
COc1cccc(C23CCN(Cc4ccccc4)C(CC(=O)C2)C3)c1 (stereo not given)	108 to 109
O=C1NN=C(c2cccc(Br)c2)CC1O (stereo not given)	158 to 161
Cc1cc(N2C(=O)N(CCCCCCCCCSCCCC(F)(F)C(F)(F)F)C(C)(C)C2=O)ccc1NS(=O)(=O)NC(=O)OC(C)(C)C	122 to 124
NCCCn1cc(-c2cc3nccnc3[nH]2)c2ccccc21	170
Cc1nc(N)sc1S(=O)(=O)NC(C)(C)CO	146
OCc1cnoc1-c1ccc(Cl)c(F)c1	87 to 88
Cn1ccc(C=C[N+](=O)[O-])c1	90 to 92
Cn1ccc2ncnc(Oc3ccc(NC(=O)Nc4cccc(C(F)(F)F)c4)c(Cl)c3)c21	192 to 194
O=C(O)c1ccc(-c2nn(Cc3ccccc3)c3ccccc23)o1	200 to 202
O=C(CBr)CN1C(=O)c2ccccc2C1=O	139 to 141
COc1cc2c(OC)nc3c4ccccc4nc(OC)c3c2cc1OC	173 to 175
O=C(O)COc1cc2c(c(Cl)c1Cl)C(=O)C(C1CCCC1)C2 (stereo not given)	184 to 186
O=C1c2c(Cl)cc(Cl)c(Cl)c2C(=O)N1c1ccccc1	199 to 200
CC(=O)OC1CSC(Oc2ccc(-c3cnccc3F)nc2-c2cnccc2F)C(OC(C)=O)C1OC(C)=O (stereo not given)	169
COc1cc(OC)nc(C(=O)NS(=O)(=O)NC(C)C)n1	167 to 169
Brc1cccc(-c2cc3nccnc3[nH]2)c1	247 to 249
COc1cc(C(=O)C#CCOCC=C(C)C)cc(OC)c1OC	32

Structure (SMILES)	melting point [°C]
CN(c1cc(Cl)ccc1C(=O)O)S(C)(=O)=O	161 to 164
O=C(CCl)N1CCSC1COc1ccccc1O (stereo not given)	89 to 91
N#CCc1c[nH]c2ccc(CS(=O)(=O)NCc3ccccc3C(N)=O)cc12	202 to 206
C[C@H](NC(=O)OCc1ccccc1)C(=O)N1CCC[C@H]1C(=O)NC1CCCCCC1	110 to 113
COc1cc(C=C2SC(N3CCCC3)=NC2=O)cc(-c2ccc(O)c(C34CC5CC(CC(C5)C3)C4)c2)c1O	353 to 355
OC1CSC(Oc2ccc(-c3ccc(Cl)nc3)nc2)C(O)C1O (stereo not given)	170
Cn1c(=S)n(CCN2CCC(Nc3nc4ccccc4n3Cc3ccco3)CC2)c(=O)c2ccccc21	188
Nc1ccc(OCc2nc3cc(F)ccc3s2)cc1	125 to 128
CC1(C)CCCc2cc3c(cc21)C(C)(C)CCC3(C)C	94 to 95
COc1cnc(C(=O)Cc2c(Cl)cncc2Cl)cc1OC1CCCC1	132
Cn1c(=O)c2nc(C(=O)O)cn2c2ccccc21	267 to 268
COc1cc(OCc2ccccn2)ccc1/C=C/c1cc(/C=C/c2cccc3ncccc23)[nH]n1	107 to 120
CC1(C(=O)N2CCN(S(=O)(=O)c3ccc(Br)cc3)CC2)CCN(c2ccncn2)CC1	217 to 218
CCS(=O)(=O)N(C(C)=O)c1cc(-n2nc(C(F)(F)F)n(C)c2=O)c(F)cc1C#N	179
CC(OC(=O)c1ccccc1)C(N)=S (stereo not given)	100 to 101
OCc1ccc2c(n1)COC(c1ccccc1)O2 (stereo not given)	85 to 89
Nc1ncccc1-c1nc2cc(C(F)(F)F)cnc2n1-c1ccc(CNC(=O)c2cccc(F)c2)cc1	230 to 231
CCC(NS(C)(=O)=O)P(=O)(Oc1ccccc1)Oc1ccccc1 (stereo not given)	136 to 139
O=C1c2ccccc2C(Cc2ccnc(Br)c2)(Cc2ccnc(Br)c2)c2ccccc21	182 to 183
CC(=O)NC(Cc1ccccc1)C(O)C(Cc1ccccc1)NC(C)=O (stereo not given)	125 to 126
CS(=O)(=O)c1ccc(-c2nn3c(-c4ccccc4)c(-c4ccccc4)oc3c2-c2ccc(F)cc2)cc1	228 to 229
ClC1=Nc2ccccc2Sc2c1csc2Cl	163 to 165

Further lines, results first:

melting point [°C]	Structure (SMILES)
124 to 127	CCCCCC(Cc1cnc(CCCC)n1Cc1ccccc1Cl)C(=O)O (stereo not given)
138 to 140	CCc1nc2c(cnn2CC)c(NC2CCOCC2)c1CNC(=O)c1cccc(C(=O)NCc2ccc(OC)c(-c3cccc(CN4CCNCC4)c3)c2)c1
101 to 103	CC(=O)NC(C)(C)c1ccc(CCl)cc1
182 to 183	CCCOc1ncc(S(C)(=O)=O)cc1-c1nc2c(CC)nn(C[C@@H]3CCCN3C)c2c(=O)[nH]1
133 to 136	COc1cccc([C@H]2O[C@H](CC(=O)Nc3cc(CCC(=O)O)ccc3OC(C)C)C(=O)N(CC(C)(C)CO)c3ccc(Cl)cc32)c1OC
262 to 264	CC(C)NC1=NS(=O)(=O)c2ccc(CC(=O)O)cc2N1
52	CCOC(=O)c1cc(Oc2ccccc2)ccc1OC
117 to 119	CCC1(CCCCN2CCc3sc(Cl)cc3C2)C(=O)Nc2ccccc21 (stereo not given)
150 to 151	N#CCCNC(=O)c1cccc(-c2ccc3c(c2)C(Oc2ccc(Cl)cc2Cl)CCC3)c1 (stereo not given)
146 to 148	CCOC(=O)C1=C(C)NC(CN(C)C)=C(C(=O)OCC)C1c1ccccc1/C=C/C(=O)OC(C)(C)C (stereo not given)
106 to 108	CCCc1c(OCCCCCCc2cc(OC)c(OC)c(C(C)C)c2)ccc(C(=O)O)c1O
51 to 52	CCOC(=O)c1cc2c(C)ccc3c2n1CCC3
218 to 220	CCCCc1nc2c(N)nc3ccccc3c2n1CC1(O)CCCCC1
86 to 87	CC(=Cc1ccc(C(C)C)cc1)c1ccc2c(c1)C(C)(C)CCC2(C)C
145 to 146	CCCc1c(OCCCCCCc2ccc(O)c(O)c2Cl)ccc(C(=O)O)c1O
150 to 158	CCCCCCCCCCCCCCOc1ccc(NC(=O)Nc2cccc(CO)c2)cc1
188 to 190	CS(=O)(=O)c1cc(Br)ccc1CN1C(=O)c2ccccc2C1=O
137	CCOC(=O)C1=C(N=CN(C)C)NC(C)=C(C(=O)OC)C1c1ccccc1Cl (stereo not given)
282 to 284	Cn1c(=O)[nH]c2nc3ccc(OCCCC(=O)NC4CCCCC4)cc3cc21
172 to 173	C=C(c1ccc(C(C)C)cc1)c1c(C)c(NC(=O)CCCC)c(C)c2c1OCC2
221	CC(SC1COC(c2ccc(C(=O)Nc3ccc(Br)cc3)cc2)OC1)C(O)(Cn1cncn1)c1ccc(F)cc1F (stereo not given)
170 to 172	COc1ccc(C(=O)[C@H]2C[C@H]2C(=O)O)cc1 (relative stereo)
153 to 165	COc1ccc(C)cc1-c1ccc(S(=O)(=O)N2c3ccccc3CC2C(=O)NCc2ccc(C(=O)O)cc2)cc1 (stereo not given)
109 to 112	C[C@@H](NC(=O)c1ccc[nH]1)C(=O)N[C@H]1CC(=O)O[C@@H]1OCc1ccccc1
175 to 177	COc1ccc2[nH]c3c(c2c1)C(C(=O)O)CCC3 (stereo not given)

melting point [°C]	Structure (SMILES)
237 to 239	CC(C)NC1=NS(=O)(=O)c2ccc(C(C)C)cc2N1
211 to 213	Cc1nc(-c2ccc(OC(C)C)c([N+](=O)[O-])c2)sc1C(=O)O
219 to 220	COc1cc2c(cc1Br)-c1c(-c3cncs3)c3c(n1CC2)C(=O)N(C(C)(C)C)CCOC3
128 to 129	CN1C(c2ccc(F)cc2)=NC(C(F)(F)F)(C(F)(F)F)C1NC(=O)c1ccc(N2CCCCC2)cc1 (stereo not given)
94 to 97	CCc1ccccc1OCC(C)NC(=O)C(C#N)C(C)(C)C (stereo not given)
122 to 123	O=C1CCCN1C(=O)Oc1ccc([N+](=O)[O-])cc1
97 to 101	CC(C)OC(=O)C1CCCN1S(=O)(=O)c1ccc(N2CCC(=O)CC2)cc1 (stereo not given)
90 to 92	C=C(C)COc1ccc(Br)cc1CN(CC)c1ccc(-c2nnco2)nn1
158 to 159	CCCCOC(=O)c1ccccc1-c1ccc(Cn2c(CCCC)nc(C(C)(C)O)c2C(=O)O)cc1
142	CCOC(=O)CCCn1c(C(=O)O)cc2cc(C)ccc21
221 to 222	CCOC(=O)c1c(-c2ccc(F)cc2)c2nccnc2c(=O)n1C
162 to 165	Cn1nc2ccccc2c1C(=O)NC1CCN(CCCc2ccc(F)cc2)CC1
117 to 119	O=C(NOCCO)c1ccc(F)cc1Nc1ccc(I)cc1F
80 to 81	O=S(=O)(CCCCl)Nc1ccc(N2CCN(c3ccc(OCC(O)(Cn4cncn4)c4ccc(Cl)cc4Cl)cc3)CC2)cc1 (stereo not given)
194 to 196	COc1cc(OC)c(-c2cc3ccccc3s2)cc1C=CC(=O)c1cc(OC)c(OC)c(OC)c1
165 to 166	Cc1ccc(C(=O)NC(NC(=NC#N)Nc2cccnc2)C(Cl)(Cl)Cl)cc1 (stereo not given)
69 to 71	CCOC(=O)C1CSC(COc2ccc(OC)cc2)N1C(=O)CCl (stereo not given)
230 to 232	N#CC(C(=O)c1ccncc1)c1ccc(F)cc1 (stereo not given)
101 to 102	CCCCC(=O)c1sc(Oc2ccc3c(c2)OCO3)c2c1CCc1cnn(C)c1-2
196	COc1ccc(CN(C)CCc2ccc(NC(=O)c3cccc4c(=O)c5c(OC)ccc(OC)c5[nH]c34)cc2)cc1OC
117 to 118	CCOC(=O)C(C)N1c2ccccc2Sc2ccc(C#N)cc21 (racemic)
53	CCCCN(CCCC)CCCOc1ccc(S(=O)(=O)c2cn[nH]c2C(C)C)cc1
236	CC(C)(C)OC(=O)[C@H]1CC[C@H](c2ccccc2)N1C(=O)CNC(=O)Nc1cccc(C(=O)O)c1 (racemic)
219 to 221	COc1ccc(-c2noc3c2C(c2ccc(OC)c(O)c2)C2=C(COC2=O)N3)cc1 (stereo not given)
204 to 206	O=C1CCC(N2Cc3c(OCc4ccc(CN5CCC(O)CC5)cc4)cccc3C2=O)C(=O)N1 (stereo not given)
